In article PMC6789442, “Unraveling Hepcidin Plasma Protein Binding: Evidence from Peritoneal Equilibration Testing” (Pharmaceuticals, 2019):
Read-outs that look alike come from different tables or passages of the source.

Tests used:
[1] = Solute concentration in peritoneal dialysate at 1 h dwell
Description: (§1) All were centrifuged at 2000 g for 10 min.
(§2) Measurements of urea, creatinine, and IgG were performed on a Cobas C8000 random access analyzer (Roche Diagnostics, Basel, Switzerland).
(§3) This MS-based assay determines total hepcidin (i.e., the sum of bound and unbound fraction). Peptide spectra were generated on a Microflex LT […] laser desorption/ionisation TOF MS platform (Bruker Daltonics, Hamburg, Germany). Hepcidin concentrations were expressed as nmol/L. The lower limit of quantification of this method was 0.5 nM.
Testosterone and cortisol in peritoneal dialysate were analyzed by LC-MS/MS after solid-phase extraction. Sample preparation consisted of internal standard addition [13C3]-testosterone (Isoscience, Ambler, PA, USA) and […] (Isoscience) to 1000 µL dialysate and solid phase extraction (SPE) using Oasis® MCX 1cc cartridges (Waters Corp, Milford, MA, USA).
Columns were pre-equilibrated with 1 mL MeOH:IPA (95:5) and subsequently washed with 1 mL H2O. After application of the sample, columns were washed with 1 mL H2O:NH4OH (95:5) and 1 mL MeOH:H2O (20/80) + 2% HCOOH. The 300 µL eluate (MeOH) was dried under a stream of N2 gas, reconstituted in MeOH:H2O (30:70). A nine-point calibration series was used (using testosterone and cortisol both from Steraloids). Calibrators, quality controls, and samples (reconstituted in 100 µL) were injected (10 µL) into an Agilent Technologies 1290 Infinity VL UHPLC-system (Agilent Technologies, Santa Clara, USA), equipped with a BEH C18 (1.7 μm 2.1 X 50 mm) analytical column (Waters Corp., Milford, MA, USA) at 60 °C. Mobile phase A (MeOH/H2O (20:80) + 2 mM NH4CH3COO + 0.1% HCOOH) and B (MeOH/H2O (98:2) + 2 mM NH4CH3COO + 0.1% HCOOH) were run in a gradient (0.4 mL/min). The gradient program was as follows: Start gradient A:B (70:30) for 2.5 min; followed by a gradient in 2 min to A:B (60:40) and subsequent 2.5 min A:B (35:65). For column washing, a gradient 0.5 min A:B (98:2) was established to remain such for 0.5 min. The column was re-equilibrated to A:B (70:30) in 0.5 min and remained such for 0.5 min. […] An Agilent 6490 tandem mass spectrometer (Agilent Technologies, Santa Clara, CA, USA) was operated in the electrospray positive ion mode. Operating conditions were as follows: Capillary voltage 3.5 kV, fragmentor voltage 380 V, sheath gas temperature 350 °C, and gas temperature 150 °C. The collision energy was optimized between 25 and 34 eV for all solutes and Nitrogen was used as collision gas. Two mass transitions were monitored for each analyte and the internal standards. The first transition was used for quantification, the second for confirmation. The transitions (Q1 > Q3) were m/z 289 > 97 and m/z 289 > 109 for testosterone; m/z 292 > 100 and m/z 292 > 112 for [13C3]-testosterone; m/z 363 > 121 and m/z 363 > 97 for cortisol; m/z 367 > 121 and m/z 367 > 97 for [3H4]-cortisol. Total run time was 9 min.
For both total and free cortisol PC calculations, we used total cortisol measurements in dialysate, since we assume that all cortisol present in dialysate after 1 h of dwell time is free considering the large MW of its main binding protein corticosteroid binding globulin (MW 52 kDa).

plasma proteins = experiment: Plasma protein binding percentage calculated from measured vs expected peritoneal clearance (MW-clearance curve); format: in vivo, human; settings: (1 − measured PC / expected PC) × 100%; expected PC from Log10(PC) = 4.5744 – 0.05063 × cube root MW; ESRD patients in PET; mean (±sd)
From the text: Logarithmic transformation was used for PC data before statistical analysis, as the data was not normally distributed. In addition, we used a cube root scaling for MW, since transport rates are related to size and thus radius (r), and considering volume as a three-dimensional characteristic of the radius (r^3). The curve describing the relation between MW and PC of all analytes was estimated with a linear mixed model using a random slope and random intercept. The expected PC of each analyte could be calculated using its MW and the equation of the curve. We calculated the binding percentage as:Binding percentage (%) = (1 − (Measured PC)/(Expected PC)) × 100%.(3)
In this equation, the measured PC divided by the expected PC represents the free hormone fraction. The strength of a linear association between the clearances of two analytes was measured using Spearman’s correlation coefficient.

[2] = Peritoneal clearance from peritoneal equilibration test (PET); settings: ESRD patients in PET; for Peritoneal Clearance t = 0–1 h Mean (sd): [Dialysate] t = 1 h / [Blood] t = 0 h × dialysate volume / 60 min, total blood concentration, N 14, 13 testosterone, 10 cortisol, 13 hepcidin
Description: (§4) Dialysate sampling was performed at 1 h of dwell time (t = 1 h), since peritoneal transport of solutes with a low MW (<200 Da) will decrease over a longer period of time due to saturation of the dialysate [22]. For sampling, all dialysate fluid was collected in a plastic (PVC) bag and mixed ex vivo before a sample was taken, to assure dialysate samples were representative for the fluid in the peritoneal cavity. Thereafter, the remaining dialysate was returned into the peritoneal cavity. […] Blood samples were drawn prior to dialysis (t = 0 h) in both heparin plasma and serum tubes. All were centrifuged at 2000 g for 10 min. Blood and dialysate samples were aliquoted and immediately stored at −80 °C until measurement.
(§5) Measurement results for solutes below the lower limit of detection (LLOD) were excluded.

[3] = Solute concentration in blood (plasma/serum) before dialysis
Description: as §1, §2, §3
Cortisol and testosterone were analyzed by Liquid Chromatography-Mass Spectrometry (LC-MS/MS) after protein precipitation and solid-phase extraction. Internal standard [^2H4]-cortisol and [^13C3]-testosterone (Isoscience, Ambler, PA, USA) was added to 100 µL serum. Subsequently, 300 µL acetonitrile with 0.1% formic acid was added for protein precipitation and 300 µL H2O was added to 200 µL supernatant followed by solid phase extraction (Oasis HLB 1cc, Waters, Milford, MA, USA). The eluate (methanol:isopropanol 95:5) was dried under a stream of N2 gas, reconstituted in methanol:water (3:7) and injected (10 µL) into an Agilent Technologies 1290 Infinity Ultra High Performance Liquid Chromatography (UHPLC)-system (Agilent Technologies, Agilent, Santa Clara, CA, USA) equipped with a BEH C18 (1.7 μm 2.1 × 50 mm) analytical column (Waters Corp.) at 60 °C. Mobile phase A (methanol:water 20:80 + 2 mM NH4CH3COO + 0.1% formic acid) and B (methanol:water 98:2 + 2 mM NH4CH3COO + 0.1% formic acid) were run in a gradient (0.4 mL/min). Start gradient 70:30 A:B for 2.5 min; then to 40:60 A:B in 3.5 min; followed by a gradient in 0.5 min to 2:98 to remain such for 0.5 min and thereafter to 70:30 A:B in 0.5 min and remain such for 0.5 min. […] Total run time was 8 min. A 9-point calibration curve was used (cortisol and testosterone, Steraloids). An Agilent 6490 tandem mass spectrometer (Agilent Technologies, Agilent, Santa Clara, CA, USA) was operated in the electrospray positive ion mode, with a capillary voltage 3.5 kV, fragmentor voltage 380 V, sheath gas temperature 350 °C, and gas temperature 150 °C with N2 collision gas. Two transitions (qualitative and quantitative) were monitored. Transitions (Q1 > Q3) were m/z 363.4 > 97.1 (34 V) and m/z 363.4 > 121.1 (25 V) for cortisol; m/z 367.4 > 97.1 (34 V) and m/z 367.4 > 121.1 (25 V) for [2H4]-cortisol. m/z 289.2 > 109.1 […] and m/z 289.2 > 97.1 […] for testosterone; m/z 292.3 > 112.1 […] and m/z 292.3 > 100.1 […] for 13C3-testosterone. Dwell time was 100 ms and 50 ms for cortisol and testosterone, respectively.

[4] = in vivo
Description: as §4, §5

[5] = ESRD patients, serum at t = 0 h, equilibrium dialysis 5 h, 37 °C, 5 kDa membrane, HEPES buffer pH 7.40, LC-MS/MS, N = 9
Description: Serum was dialyzed in a multi-cell equilibrium dialyzer using Teflon dialyzing cells consisting of two identical parts between which a flat membrane is fitted (Dianorm-Geräte). The dialysis cells are incubated in a water bath with constant agitation by a rotating apparatus and temperature during dialysis was maintained at 37 ± 0.5 °C, by constant monitoring with an immersion thermostatic system (Tinytag TGP-4020 logger and PB5001-1M5 sonde; Gemini data loggers). The dialysis membranes were prepared from Dianorm (Diachema dialysis membranes 10.14) with a cut-off of 5 kDa. Equilibrium dialysis was performed for 5 h with 180 µL serum against 180 µL HEPES buffer; while rotating the dialysis apparatus at 20 rpm.

[6] = rapidly excreted by the kidneys; cited from earlier work
From the text: Our finding that hepcidin is not predominantly bound is in line with other literature, in which a merely freely circulating hepcidin was observed using gel chromatography on human serum samples, followed by Liquid Chromatography-Mass Spectrometry (LC-MS/MS). In fact, other peptide hormones such as human growth hormone, insulin [28], and cardiac natriuretic hormones circulate freely, since peptide hormones are often water-soluble and can, therefore, easily be transported via the cardiovascular system without requiring carrier proteins. In addition, hepcidin is ...

[7] = peritoneal dialysate at 1 h dwell, 3.86% glucose solution, ESRD patients, total measurement, mean (sd), N 13 testosterone, 10 cortisol, 13 hepcidin

Compound	[Dialysate] t = 1 h Mean (sd) [1, 7]	Binding percentage (protein-bound fraction) (plasma proteins)	Peritoneal Clearance t = 0–1 h Mean (sd) [2]	[Dialysate] t = 1 h Mean (sd) ([1]; in vivo)	Peritoneal Clearance t = 0–1 h Mean (sd) [4]	[Plasma] t = 0 h Mean (sd), total concentration ([3]; in vivo)	further results
C[C@]12CC[C@H]3[C@@H](CCC4=CC(=O)CC[C@@]43C)[C@@H]1CC[C@@H]2O [Testosterone, testosterone]	0.1 (0.1) nmol/L	97% (±1.5%)	507.7 (260.5) µL/min	–	–	–	[Plasma] t = 0 h Mean (sd), total concentration ([3]; ESRD patients undergoing PET, blood at t = 0 h, total = free and protein-bound, cortisol/testosterone LC-MS/MS, hepcidin WCX-TOF MS, mean (sd), N 13 testosterone, 10 cortisol, 13 hepcidin): 8.6 (7.3) nmol/L
CN1CC(=O)NC1=N [Creatinine, creatinine]	–	–	–	296.9 (119.9) µmol/L	21,499.6 (5861.6) µL/min	–	[Plasma] t = 0 h Mean (sd) ([3]; in vivo): 542.0 (172.6) µmol/L
C[C@]12CCC(=O)C=C1CC[C@@H]1[C@@H]2[C@@H](O)C[C@@]2(C)[C@H]1CC[C@]2(O)C(=O)CO [Cortisol, cortisol]	8.4 (5.8) nmol/L	91% (±3%)	–	–	1439.0 (490.8) µL/min	229.1 (134.4) nmol/L	[Dialysate] t = 1 h Mean (sd), row of free cortisol ([1]; total cortisol measured in dialysate at 1 h, assumed to be all free, used for free cortisol clearance, mean (sd), N = 9): 8.4 (5.8) nmol/L; [Plasma] t = 0 h Mean (sd), free cortisol [5]: 12.7 (7.7) nmol/L; Peritoneal Clearance t = 0–1 h Mean (sd), free cortisol ([2]; calculated with free serum cortisol at t = 0 h and total cortisol in dialysate at 1 h, N = 9): 25,030.8 (8123.9) µL/min
NC(N)=O [Urea, urea]	–	–	26,959.1 (6211.8) µL/min	–	–	–	[Dialysate] t = 1 h Mean (sd) ([1]; peritoneal dialysate at 1 h dwell, 3.86% glucose solution, ESRD patients, mean (sd), N = 14): 15.0 (6.1) mmol/L; [Plasma] t = 0 h Mean (sd) ([3]; ESRD patients on peritoneal dialysis undergoing PET, blood drawn before dialysis (t = 0 h), endogenous solute, mean (sd), N = 14): 21.5 (6.6) mmol/L
hepcidin	–	40% (±23%)	4337.5 (1713.1) µL/min	1.2 (1.1) nmol/L	–	10.6 (9.1) nmol/L	half-life [6]: several hours
